In ChEMBL document CHEMBL4334438, “Discovery of novel glycogen synthase kinase-3α inhibitors: Structure-based virtual screening, preliminary SAR and biological evaluation for treatment of acute myeloid leukemia” (Eur J Med Chem, 2019):

What was measured:
[1] = test system: Glycogen synthase kinase-3 alpha (Homo sapiens), P49840 [UNDEFINED MUTATION]; test: Inhibition of human GSK-3alpha S449A mutant (2 to end residues) at 10 uM using phospho GS2 peptide as substrate after 40 mins in presence of [gamma-33ATP] by scintillation counting method relative to control
Glycogen synthase kinase-3 alpha (Homo sapiens), P49840 [UNDEFINED MUTATION], sequence (P49840 whole entry, looked up, stated change not applied): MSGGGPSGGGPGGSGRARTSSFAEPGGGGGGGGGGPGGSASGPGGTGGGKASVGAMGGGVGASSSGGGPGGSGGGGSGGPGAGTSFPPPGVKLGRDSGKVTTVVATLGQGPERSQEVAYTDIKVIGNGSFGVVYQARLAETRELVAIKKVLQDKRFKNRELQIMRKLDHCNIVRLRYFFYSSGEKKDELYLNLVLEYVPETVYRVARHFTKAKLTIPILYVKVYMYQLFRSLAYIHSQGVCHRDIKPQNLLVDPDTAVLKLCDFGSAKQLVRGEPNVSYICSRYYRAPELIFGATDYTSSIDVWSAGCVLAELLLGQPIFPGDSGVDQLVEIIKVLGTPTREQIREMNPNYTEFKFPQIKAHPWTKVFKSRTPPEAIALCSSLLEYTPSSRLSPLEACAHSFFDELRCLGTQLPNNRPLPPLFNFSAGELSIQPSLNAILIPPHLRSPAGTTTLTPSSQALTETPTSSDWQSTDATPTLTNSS

[2] = molecular target: Glycogen synthase kinase-3 alpha (Homo sapiens, UniProt P49840); test: Inhibition of human GSK-3alpha S449A mutant (2 to end residues) using phospho GS2 peptide as substrate after 40 mins in presence of [gamma-33ATP] by scintillation counting method
Glycogen synthase kinase-3 alpha, sequence (P49840 whole entry, the tested form may be a part): as the sequence (P49840 whole entry, looked up, stated change not applied) above

GSK-3beta (H350L mutant) = GSK-3beta (H350L mutant) (Homo sapiens, UniProt P49841, H350L); test: Inhibition of human GSK-3beta H350L mutant (2 to end residues) at 10 uM using phospho GS2 peptide as substrate after 40 mins by [gamma-33ATP] radiometric assay relative to control; settings: human GSK-3beta H350L mutant enzyme (residues 2 to end), probe phospho GS2 peptide
GSK-3beta (H350L mutant), sequence (P49841 whole entry, looked up, stated change not applied, the tested form may be a part): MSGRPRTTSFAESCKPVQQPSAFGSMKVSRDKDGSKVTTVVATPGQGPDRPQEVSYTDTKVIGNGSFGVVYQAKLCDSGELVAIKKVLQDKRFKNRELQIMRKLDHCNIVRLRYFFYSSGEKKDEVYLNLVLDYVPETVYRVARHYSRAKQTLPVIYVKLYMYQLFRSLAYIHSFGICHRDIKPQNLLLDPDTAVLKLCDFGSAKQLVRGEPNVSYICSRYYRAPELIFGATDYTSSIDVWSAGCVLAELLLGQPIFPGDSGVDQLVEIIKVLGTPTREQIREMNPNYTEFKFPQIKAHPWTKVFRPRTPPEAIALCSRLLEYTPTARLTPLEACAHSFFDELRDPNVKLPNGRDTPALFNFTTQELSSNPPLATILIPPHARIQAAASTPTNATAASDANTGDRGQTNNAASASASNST

[3] = molecular target: Glycogen synthase kinase-3 beta (Homo sapiens, UniProt P49841, H350L); test: Inhibition of human GSK-3beta H350L mutant (2 to end residues) at 10 uM using phospho GS2 peptide as substrate after 40 mins by [gamma-33ATP] radiometric assay
Glycogen synthase kinase-3 beta, sequence (P49841 whole entry, looked up, stated change not applied): as the sequence (P49841 whole entry, looked up, stated change not applied, the tested form may be a part) above

Compound	inhibition [1] [%]	IC50 [2] [nM]	inhibition at 40 min, 10 µM (GSK-3beta (H350L mutant)) [%]	IC50 [3] [nM]
COc1ccc(-c2ccc(CNc3n[nH]c(C)n3)o2)cc1Cl	8	–	–	–
Cc1cc([N+](=O)[O-])ccc1-c1ccc(/C=C2/SC(=N)NC2=O)o1	44	–	–	–
N=C1NC(=O)/C(=C\c2ccc(-c3ccc(Cl)cc3Cl)o2)S1	82	1880	93	1200
N#Cc1cn(CCCN2CCN(CCCn3cc(C#N)c(=O)[nH]c3=O)CC2)c(=O)[nH]c1=O	2	–	–	–
CCN1C(=O)/C(=C\c2ccc(-c3ccc(Cl)cc3Cl)o2)NC1=S	26	–	–	–
N=C1NC(=O)/C(=C\c2ccc(-c3ccc([N+](=O)[O-])cc3Cl)o2)S1	20	–	–	–
NC(=O)Cc1nc2sc3c(c2c(=O)[nH]1)CCN(Cc1ccccc1)C3	-1	–	–	–
Cc1c(Cl)cccc1-c1ccc(CNc2nc[nH]n2)o1	8	–	–	–
O=C1NC(=S)N/C1=C/c1ccc(Sc2ccc(Cl)cc2)o1	23	–	–	–
O=C(CSc1nc2ccccc2[nH]c1=O)Nc1ccc2c(c1)OCO2	2	–	–	–
O=C(COC(=O)c1cc(O)nc2ccccc12)c1cccc2ccccc12	2	–	–	–
Cc1ccccc1OCC(=O)Nc1ccc(Oc2ccc3c(c2)C(=O)NC3=O)cc1	54	10200	–	–
COc1ccc(-c2n[nH]cc2/C=N\NC(=O)c2ccccc2I)cc1OC	44	–	–	–
O=C1NC(=S)NC(=O)C1=Cc1ccc(-c2cc(Cl)ccc2Cl)o1	26	–	–	–
CC(=O)/N=C1/NC(=O)/C(=C\c2ccc(-c3ccc(C)c(Cl)c3)o2)S1	21	–	–	–
O=C1N/C(=N/c2ccccc2)S/C1=C/c1ccco1	21	–	–	–
O=C1NC(=S)N/C1=C/c1ccc(-c2cc([N+](=O)[O-])ccc2Cl)o1	22	–	–	–
N=C1NC(=O)/C(=C\c2ccc(-c3ccc(Cl)c([N+](=O)[O-])c3)o2)S1	49	–	–	–
Cc1ccc(SCc2[nH]nc3c2C(c2ccnc4ccccc24)C(C#N)=C(N)O3)cc1 (stereo unspecified)	2	–	–	–
CCOc1c(/C=C2/SC(=O)NC2=O)cccc1OC	54	16800	–	–
N#Cc1ccccc1-c1ccc(C=C2C(=O)NC(=S)NC2=O)o1	14	–	–	–
O=C(N/N=C/c1cccnc1)c1cc(-c2cccc3ccccc23)n[nH]1	12	–	–	–
COc1ccc([N+](=O)[O-])cc1-c1ccc(/C=C2/S/C(=N\C(C)=O)NC2=O)o1	9	–	–	–
Cc1[nH]nc2c1C(c1ccnc3ccccc13)C(C#N)=C(N)O2 (stereo unspecified)	6	–	–	–
Cc1ccc(-c2ccc(/C=C3/SC(=N)NC3=O)o2)c([N+](=O)[O-])c1	85	162	89	320
N#CC1=C(N)Oc2[nH]nc(-c3cccnc3)c2/C1=C1\C(=O)Nc2ccc(Br)cc21	2	–	–	–

Compound	inhibition [1] [%]	IC50 [2] [nM]	inhibition at 40 min, 10 µM (GSK-3beta (H350L mutant)) [%]	IC50 [3] [nM]
Cc1ccc(Cl)cc1-c1ccc(/C=C2/S/C(=N\c3ccccc3)NC2=O)o1	0	–	–	–
CC(=O)/N=C1/NC(=O)/C(=C\c2ccc(-c3ccc(F)cc3F)o2)S1	15	–	–	–
NC1=NC(=O)/C(=C\c2ccc(-c3ccccc3[N+](=O)[O-])o2)S1	91	2800	82	2500
O=C(O)CCC(=O)N1N=C(c2c(O)nc3ccc(Cl)cc3c2-c2ccccc2)CC1c1ccco1 (stereo unspecified)	67	–	–	–
O=C1N/C(=N/c2ccccc2)S/C1=C/c1ccc(Sc2ccc(Cl)cc2)o1	47	–	–	–
CCCCCSc1nc2c(c(=O)[nH]c(=O)n2C)n1CC(O)COc1ccccc1 (stereo unspecified)	25	–	–	–
CC(=O)c1cn(CCCCCCCCCCn2cc(C(C)=O)c(=O)[nH]c2=O)c(=O)[nH]c1=O	13	–	–	–
COc1cc(CNc2nn[nH]n2)ccc1OCC(N)=O	1	–	–	–
CC(=O)/N=C1/NC(=O)/C(=C\c2ccc(-c3ccc(C(=O)O)cc3)o2)S1	86	557	72	3720
NS(=O)(=O)c1ccc(N/C=C2/C(=O)NC(=O)N(c3ccccc3)C2=O)cc1	17	–	–	–
COc1cc([N+](=O)[O-])ccc1-c1ccc(/C=C2/SC(=N)NC2=O)o1	29	–	–	–
O=C1NC(=O)N(c2ccc(Br)cc2)C(=O)/C1=C\NCCc1c[nH]c2ccccc12	66	4600	–	–
O=C(CSc1nnc(CCc2nnc(SCC(=O)c3ccccc3)[nH]2)[nH]1)c1ccccc1	25	–	–	–
N=C1NC(=O)/C(=C\c2ccc(-c3cc([N+](=O)[O-])ccc3Cl)o2)S1	71	2680	65	1760
Cc1cc(C)cc(/N=C2/NC(=O)/C(=C\c3ccc(-c4cccc(Cl)c4)o3)S2)c1	10	–	–	–
Cc1ccc(OCc2n[nH]c(Nc3ccccc3)n2)cc1	5	–	–	–
COc1ccc([N+](=O)[O-])cc1-c1ccc(/C=C2/SC(=N)NC2=O)o1	15	–	–	–
COc1cc(CNc2ccc(CNc3nc[nH]n3)cc2)ccc1OCC(=O)NC(C)(C)C	1	–	–	–
N=C1NC(=O)/C(=C\c2ccc(-c3ccccc3Cl)o2)S1	95	242	95	565
O=C(O)CCC(=O)N1N=C(c2c(-c3ccccc3)c3cc(Cl)ccc3[nH]c2=O)CC1c1ccco1 (stereo unspecified)	–	13000	–	–
O=C1NC(=S)N/C1=C/c1ccc(-c2cccc(C(=O)O)c2)o1	97	145	96	338
O=C1NC(=O)C(c2cnc3ccccn23)=C1c1cn2c3c(cc(F)cc13)CN(C(=O)N1CCCCC1)CC2 [LY-2090314]	99	1.02	97	1.29
Cc1ccc(-c2ccc(/C=C3/NC(=S)NC3=O)o2)cc1Cl	76	904	72	1290
COc1ccc(CNc2cc(-c3ccco3)n[nH]2)cc1	1	–	–	–
O=C1N/C(=N/c2ccccc2)S/C1=C/c1ccc(-c2ccccc2)o1	23	–	–	–
CCCOC(=O)c1cc(-c2ccc(/C=C3/NC(=S)NC3=O)o2)ccc1Cl	88	159	81	405

Compound	inhibition [1] [%]	IC50 [2] [nM]	inhibition at 40 min, 10 µM (GSK-3beta (H350L mutant)) [%]	IC50 [3] [nM]
O=C1NC(=S)N/C1=C/c1ccc(-c2ccc([N+](=O)[O-])cc2)o1	88	412	72	584
O=C1NC(=S)N/C1=C/c1ccc(-c2ccc(Cl)c(Cl)c2)o1	65	370	59	678
O=C1NC(=S)N/C1=C/c1ccc(-c2ccc(C(=O)O)cc2)o1	97	309	91	743
N=C1NC(=O)/C(=C\c2ccc(-c3cccc(Cl)c3)o2)S1	94	282	88	767
Nc1nc(CCCc2n[nH]c(N)n2)n[nH]1	16	–	–	–
CN1C(=O)/C(=C\c2ccc(-c3cccc(Cl)c3)o2)N(C)C1=S	13	–	–	–
CCCN1C(=O)/C(=C\c2ccc(-c3ccc(Cl)cc3)o2)NC1=S	17	–	–	–
O=C1N/C(=N/Cc2ccccc2)S/C1=C/c1ccc(-c2ccccc2)o1	30	–	–	–
COc1cc(/C=C2/C(=O)NC(=O)N(c3ccccc3)C2=O)ccc1O	14	–	–	–
CC1=NN(c2cccc(C(=O)O)c2)C(=O)/C1=C\c1ccc(-c2ccc3c(c2)C(=O)NC3=O)o1	58	6150	–	–
CN1C(=N)NC(=O)/C1=C\c1ccc(-c2ccc(F)cc2)o1	81	1340	78	1890
N=C1NC(=O)/C(=C\c2ccc(-c3cccc(C(=O)O)c3)o2)S1	97	207	93	308
COC(=O)c1ccc(-c2ccc(/C=C3\C(=O)NC(=N)N3C)o2)cc1	32	–	–	–
O=C(O)c1cc(NS(=O)(=O)c2ccc3c4c(cccc24)C(=O)N3)ccc1O	15	–	–	–
Cc1ccc(-c2ccc(/C=C3/SC(=N)NC3=O)o2)cc1Cl	81	301	77	1430
O=C1N/C(=N/c2ccccc2)S/C1=C/c1ccc(-c2cccc(C(=O)O)c2)o1	15	–	–	–
Cc1c(-c2ccc(/C=C3/SC(=N)NC3=O)o2)ccc([N+](=O)[O-])c1C	64	227	66	571
CC(=O)/N=C1/NC(=O)/C(=C\c2ccc(-c3ccccc3C(=O)O)o2)S1	11	–	–	–
O=C(N/N=C/c1cccc(Cl)c1)c1cc(-c2ccc3c4c(cccc24)CC3)[nH]n1	52	11200	–	–
NC(=O)CSc1nc2c(N)ncnc2n1Cc1ccccc1	-10	–	–	–
CCN1C(=O)/C(=C\c2ccc(-c3ccc(C(=O)O)cc3)o2)N(CC)C1=S	38	–	–	–
CCCCOC(=O)c1cc(-c2ccc(/C=C3/NC(=S)NC3=O)o2)ccc1Cl	65	710	55	1190
O=C1NC(=S)N/C1=C/c1ccc(-c2ccccc2Cl)o1	84	609	86	917
O=C1NC(=S)N/C1=C/c1ccc(-c2c(Br)cc([N+](=O)[O-])cc2Br)o1	42	–	–	–
